Source: patent US20190062736A1, “IN SITU AND IN VIVO ANALYSIS OF CHROMATIN INTERACTIONS BY BIOTINYLATED DCAS9 PROTEIN” (BOARD OF REGENTS, THE UNIVERSITY OF TEXAS SYSTEM, priority 2017, published 2019)
Entries after “also recorded” stand apart in the source; their conditions may differ.

What was measured:
human erythroid cells = assay: Erythroid maturation by CD71/CD235a flow cytometry and cytospin after JQ1; type: cell-based; settings: JQ1 vs DMSO, cell surface markers CD71 and CD235a, cytospin
Protocol: (§1) Cells and Cell Culture. Human […] K562 cells were obtained from ATCC and cultured in IMDM medium containing 10% FBS and 1% penicillin/streptomycin. pEF1α-FB-dCas9 and pEF1α-BirA-V5 vectors were co-transfected into K562 cells by nucleofection using the ECM 830 Square Wave Electroporation System (Harvard Apparatus, Holliston, Mass.). Cells were plated in 96-well plates and treated with 1 μg/ml of puromycin (Sigma) and 600 μg/ml of G418 (Sigma) 48-72 hour post-transfection. Single-cell-derived clones were isolated and examined by Western blot analysis to screen for FB-dCas9 and BirA-expressing stable clones. Human primary adult erythroid progenitor cells were generated ex vivo from CD34+ HSPCs as previously described (Huang et al., 2016). Primary HSPCs from both sexes were used in this study. […] Mouse male embryonic stem cells (ESCs) were cultured on primary embryonic fibroblasts and differentiated to embryoid bodies (EBs) by LIF withdrawal for 8 days. All cultures were incubated at 37° C. in 5% CO2. […]
Flow Cytometry. Human erythroid cell differentiation was analyzed by flow cytometry using FACSCanto. […] The cells were analyzed for expression of cell surface receptors with antibodies specific for CD71 and CD235a conjugated to phycoerythrin (PE) and fluorescein isothiocyanate (FITC), respectively. Data were analyzed using FlowJo software (Ashland, Oreg.). […]

[1] = tested on: human primary erythroid cells; assay: qRT-PCR of β-globin mRNAs after JQ1 treatment; type: cell-based; settings: JQ1 vs DMSO
Protocol: as §1, with “CO2. All cell lines were tested for mycoplasma contamination.” for “CO2.”
RNA-seq and qRT-PCR Analysis. […] Sequencing reads from all RNA-seq experiments were aligned to human (hg19) reference genome by TopHat v2.0.13 (Trapnell et al., 2009) with the parameters: --solexaquals --no-novel-juncs. Quantitative RT-PCR (qRT-PCR) was performed using the iQ SYBR Green Supermix (Bio-Rad).

## Cc1sc2c(c1C)C(c1ccc(Cl)cc1)=N[C@@H](CC(=O)OC(C)(C)C)c1nnc(C)n1-2 [JQ1]
Human erythroid cells
  erythroid differentiation: without apparent effects
[1]
  β-globin mRNAs: significant downregulation; also recorded: significantly decreased
